Test results as given in patent US10988478B1, “Pyrazolo[1,5a]pyrimidine derivatives as IRAK4 modulators” (Genentech, Inc., priority 2015, dated 2021).

Biological target: human IRAK4 (Homo sapiens (Human), UniProt Q9NWZ3)
Test: IRAK4 kinase inhibition, Transcreener fluorescence polarization ADP assay
Assay type: biochemical
Conditions: recombinant full-length His6-IRAK4; 125 uM ATP; 90 min; Ki computed using ATP Km 642 uM
Protocol: Compounds were assayed for inhibition of human IRAK4 and IRAK1 catalytic activity using recombinant enzyme produced from insect cells. Full-length IRAK4 protein, carrying an N-terminal His6-Tag, was obtained from Life Technologies (Carlsbad, Calif., USA). The IRAK1 construct was produced internally and was comprised of IRAK1 residues Arg194 to Ser712, preceded by an NH2-terminal His6 tag and the coding sequence for glutathione-S-transferase.

Sequence of human IRAK4 (Q9NWZ3 whole entry): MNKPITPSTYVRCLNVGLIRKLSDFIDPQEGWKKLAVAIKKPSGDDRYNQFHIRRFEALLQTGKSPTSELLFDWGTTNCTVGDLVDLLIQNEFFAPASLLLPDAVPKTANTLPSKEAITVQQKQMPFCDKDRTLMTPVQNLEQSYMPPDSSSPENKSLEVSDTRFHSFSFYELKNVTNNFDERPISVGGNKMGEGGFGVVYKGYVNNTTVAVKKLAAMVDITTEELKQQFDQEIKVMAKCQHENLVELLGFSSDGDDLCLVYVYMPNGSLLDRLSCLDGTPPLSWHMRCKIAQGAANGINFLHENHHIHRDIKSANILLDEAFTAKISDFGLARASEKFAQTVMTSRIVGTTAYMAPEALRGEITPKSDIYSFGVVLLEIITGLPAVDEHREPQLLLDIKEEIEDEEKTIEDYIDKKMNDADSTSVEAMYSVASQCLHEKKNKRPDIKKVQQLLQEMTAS

Row | SMILES | Ki
1 | CC(C)(O)[C@@]1(C)Cc2cc(NC(=O)c3cnn4cccnc34)c(N3CCOCC3)cc2O1 [Example 157, (R)—N-(2-(2-Hydroxypropan-2-yl)-2-methyl-6-morpholino-2,3-dihydrobenzofuran-5-yl)pyrazolo[1,5-a]pyrimidine-3-carboxamide] | 8.8 nM
2 | CC(C)(O)[C@]1(C)Cc2cc(NC(=O)c3cnn4cccnc34)c(N3CCOCC3)cc2O1 [Example 158, (S)—N-(2-(2-Hydroxypropan-2-yl)-2-methyl-6-morpholino-2,3-dihydrobenzofuran-5-yl)pyrazolo[1,5-a]pyrimidine-3-carboxamide] | 27 nM
3 | C[C@@]1(CO)Cc2cc(NC(=O)c3cnn4cc(Cl)cnc34)c(N3CCOCC3)cc2O1 [Example 165, (S)-6-Chloro-N-(2-(hydroxymethyl)-2-methyl-6-morpholino-2,3-dihydrobenzofuran-5-yl)pyrazolo[1,5-a]pyrimidine-3-carboxamide] | 5.6 nM
4 | CC1(CO)Cc2cc(NC(=O)c3cnn4cc(Cl)cnc34)c(N3CCN(CC(F)F)CC3)cc2O1 (centres unmarked) [Example 168] | 3.6 nM
5 | C[C@]1(CO)Cc2cc(NC(=O)c3cnn4cc(Cl)cnc34)c(N3CCN(CC(F)F)CC3)cc2O1 [Example 170, (R)-6-Chloro-N-(6-(4-(2,2-difluoroethyl)piperazin-1-yl)-2-(hydroxymethyl)-2-methyl-2,3-dihydrobenzofuran-5-yl)pyrazolo[1,5-a]pyrimidine-3-carboxamide] | 3 nM
6 | C[C@]1(CO)Cc2cc(NC(=O)c3cnn4cccnc34)c(OC(F)(F)F)cc2O1 [Example 171, (R)—N-(2-(Hydroxymethyl)-2-methyl-6-(trifluoromethoxy)-2,3-dihydrobenzofuran-5-yl)pyrazolo[1,5-a]pyrimidine-3-carboxamide] | 38 nM
7 | C[C@@]1(CO)Cc2cc(NC(=O)c3cnn4cccnc34)c(OC(F)(F)F)cc2O1 [Example 172, (S)—N-(2-(hydroxymethyl)-2-methyl-6-(trifluoromethoxy)-2,3-dihydrobenzofuran-5-yl)pyrazolo[1,5-a]pyrimidine-3-carboxamide] | 16 nM
8 | O=C(Nc1cc2c(cc1N1CCOCC1)C(=O)N(CC(F)(F)F)C2)c1cnn2cccnc12 [Example 173, N-[6-Morpholino-1-oxo-2-(2,2,2-trifluoroethyl)isoindolin-5-yl]pyrazolo[1,5-a]pyrimidine-3-carboxamide] | 29 nM
9 | O=C(Nc1cc2c(cc1N1CCOCC1)C(=O)N(CC(F)F)C2)c1cnn2cccnc12 [Example 174, N-[2-(2,2-difluoroethyl)-6-morpholino-1-oxo-isoindolin-5-yl]pyrazolo[1,5-a]pyrimidine-3-carboxamide] | 20 nM
10 | CC(C)(O)CN1Cc2cc(NC(=O)c3cnn4cccnc34)c(N3CCOCC3)cc2C1=O [Example 176, N-[2-(2-hydroxy-2-methyl-propyl)-6-morpholino-1-oxo-isoindolin-5-yl]pyrazolo[1,5-a]pyrimidine-3-carboxamide] | 51 nM
11 | COCCN1Cc2cc(NC(=O)c3cnn4cccnc34)c(N3CCOCC3)cc2C1=O [Example 178, N-[2-(2-methoxyethyl)-6-morpholino-1-oxo-isoindolin-5-yl]pyrazolo[1,5-a]pyrimidine-3-carboxamide] | 15 nM
12 | O=C(Nc1cc2c(cc1N1CCOCC1)C(=O)N(CCO)C2)c1cnn2cccnc12 [Example 179, N-[2-(2-hydroxyethyl)-6-morpholino-1-oxo-isoindolin-5-yl]pyrazolo[1,5-a]pyrimidine-3-carboxamide] | 31 nM

Next, values leading:

Row | Ki | SMILES
13 | 4.4 nM | C[C@]1(C2CC2)Cc2cc(NC(=O)c3cnn4cccnc34)c(N3CCN(CC(F)F)CC3)cc2O1 [Example 159, (R)—N-(2-Cyclopropyl-6-(4-(2,2-difluoroethyl)piperazin-1-yl)-2-methyl-2,3-dihydrobenzofuran-5-yl)pyrazolo[1,5-a]pyrimidine-3-carboxamide]
14 | 4.8 nM | C[C@@]1(C2CC2)Cc2cc(NC(=O)c3cnn4cccnc34)c(N3CCN(CC(F)F)CC3)cc2O1 [Example 160, (S)—N-(2-Cyclopropyl-6-(4-(2,2-difluoroethyl)piperazin-1-yl)-2-methyl-2,3-dihydrobenzofuran-5-yl)pyrazolo[1,5-a]pyrimidine-3-carboxamide]
15 | 3.8 nM | C[C@]1(C2CC2)Cc2cc(NC(=O)c3cnn4cccnc34)c(N3CCC(F)(CO)CC3)cc2O1 [Example 161, (R)—N-(2-Cyclopropyl-6-(4-fluoro-4-(hydroxymethyl)piperidin-1-yl)-2-methyl-2,3-dihydrobenzofuran-5-yl)pyrazolo[1,5-a]pyrimidine-3-carboxamide]
16 | 4.5 nM | C[C@@]1(C2CC2)Cc2cc(NC(=O)c3cnn4cccnc34)c(N3CCC(F)(CO)CC3)cc2O1 [Example 162, (S)—N-(2-Cyclopropyl-6-(4-fluoro-4-(hydroxymethyl)piperidin-1-yl)-2-methyl-2,3-dihydrobenzofuran-5-yl)pyrazolo[1,5-a]pyrimidine-3-carboxamide]
17 | 3.9 nM | C[C@]1(CO)Cc2cc(NC(=O)c3cnn4cc(Cl)cnc34)c(N3CCC(CO)CC3)cc2O1 [Example 163, (R)-6-Chloro-N-(2-(hydroxymethyl)-6-(4-(hydroxymethyl)piperidin-1-yl)-2-methyl-2,3-dihydrobenzofuran-5-yl)pyrazolo[1,5-a]pyrimidine-3-carboxamide]
18 | 2.8 nM | C[C@@]1(CO)Cc2cc(NC(=O)c3cnn4cc(Cl)cnc34)c(N3CCC(CO)CC3)cc2O1 [Example 164, (S)-6-Chloro-N-(2-(hydroxymethyl)-6-(4-(hydroxymethyl)piperidin-1-yl)-2-methyl-2,3-dihydrobenzofuran-5-yl)pyrazolo[1,5-a]pyrimidine-3-carboxamide]
19 | 2.8 nM | CC1(C)Cc2cc(NC(=O)c3cnn4cc(Cl)cnc34)c(N3CCC4(CCOC4)CC3)cc2O1 [Example 167, 6-Chloro-N-(2,2-dimethyl-6-(2-oxa-8-azaspiro[4.5]decan-8-yl)-2,3-dihydrobenzofuran-5-yl)pyrazolo[1,5-a]pyrimidine-3-carboxamide]
20 | 2.2 nM | CC(C)(O)CCN1Cc2cc(NC(=O)c3cnn4cccnc34)c(N3CCOCC3)cc2C1=O [Example 175, N-[2-(3-hydroxy-3-methyl-butyl)-6-morpholino-1-oxo-isoindolin-5-yl]pyrazolo[1,5-a]pyrimidine-3-carboxamide]
21 | 2 nM | NC(=O)CN1CCN(c2cc3c(cc2NC(=O)c2cnn4cccnc24)CN(C2CCOCC2)C3=O)CC1 [Example 177, N-[6-[4-(2-amino-2-oxo-ethyl)piperazin-1-yl]-1-oxo-2-tetrahydropyran-4-yl-isoindolin-5-yl]pyrazolo[1,5-a]pyrimidine-3-carboxamide]
22 | 3.8 nM | CN1CCC(N2Cc3cc(NC(=O)c4cnn5cccnc45)c(N4CCOCC4)cc3C2=O)CC1 [Example 180, N-[2-(1-methyl-4-piperidyl)-6-morpholino-1-oxo-isoindolin-5-yl]pyrazolo[1,5-a]pyrimidine-3-carboxamide]
23 | 2 nM | O=C(Nc1cc2c(cc1N1CCOCC1)C(=O)N([C@H]1CC[C@H](O)CC1)C2)c1cnn2cccnc12 [Example 181, N-[2-(4-hydroxycyclohexyl)-6-morpholino-1-oxo-isoindolin-5-yl]pyrazolo[1,5-a]pyrimidine-3-carboxamide]
